Reference: patent US20030158250A1, “Agents correcting gene expression regulatory error” (priority 2000, published 2003)

Experiments:
interleukin-10 (IL-10) = test: LPS-induced IL-10 production in RAW 264.7 cells (ELISA); type: cell-based; conditions: final concentration 20 μM, 5 hours, then LPS 18 hours, IL-10 in culture supernatant by ELISA
Protocol: RAW 264.7 cells (ATCC TIB 71) were suspended in a Dulbecco's modified Eagle's medium (manufactured by Bio Whittaker; 12-604F) containing 10% fetal bovine serum (manufactured by Gibco), so as to have a concentration of 3×10^5 cells/ml. The cell suspension was added to each well of a 48-well microtiter plate in a volume of 0.5 ml each. The cells were cultured at 37° C. in the presence of 5% CO2 gas overnight. To each well was added 5 μl of a 2 mM DGE aqueous solution (final concentration: 20 μM), and the cells were cultured for additional 5 hours. Thereafter, 5 μl of a 100 μg/ml lipopolysaccharide (LPS, manufactured by Sigma, L-2012) aqueous solution was added thereto, and the cells were cultured for 18 hours, and thereafter the culture supernatant was recovered. The content of the interleukin-10 (IL-10) in the culture supernatant was assayed by the enzyme immuno-sandwich assay. Here, the group with no addition of DGE and LPS aqueous solution (control) was set as a negative control, and the group with addition of LPS aqueous solution (control+LPS) alone was set as a positive control. In addition, all of the assays were carried out twice.

TNFα = test: LPS-stimulated TNFα production in monocytes (ELISA); type: cell-based; conditions: human monocytes, final concentration 10 μM, 20 μM or 40 μM, 5 hours, then LPS 4 hours
Protocol: PBMCs were isolated in the same manner as in item (1) of Example 4. PBMCs were suspended in RPMI 1640 medium containing 5% human serum of blood type-AB, 0.1 mM nonessential amino acid, 1 mM sodium pyruvate, 2 mM L-glutamine (hereinabove manufactured by Bio Whittaker), 10 mM HEPES (manufactured by nakalai tesque), and 1% streptomycin-penicillin (manufactured by Gibco BRL) (hereinafter simply referred to as “5HRPMI medium”) so as to have a concentration of 2×10^6 cells/ml. Thereafter, the suspension was spread on a 24-well cell culture plate (manufactured by Falcon) in a volume of 1 ml/well, and the cells were incubated in a wet-type incubator at 37° C. and 5% CO2 for 1.5 hours. After 1.5 hours, the non-adherent cells were removed by suction, and each well was washed with RPMI 1640 medium, and 1 ml of the 5HRPMI medium was added to the wells, to give monocytes.
To the monocytes obtained above was added in each well 10 μl of a 1 mM, 2 mM or 4 mM aqueous DGE solution (each having a final concentration of 10 μM, 20 μM or 40 μM), or a 5 mM, 10 mM or 20 mM aqueous agarobiose solution (each having a final concentration of 50 μM, 100 μM or 200 μM), or 10 μl of water as a control (i.e. each of concentrations of DGE and agarobiose being 0 μM), and the cells were incubated in a wet-type incubator at 37° C. and 5% CO2 for 5 hours. […]

With `O=C1C=CC(CO)OC1O` [DGE, L-glycero-1,5-epoxy-1αβ,6-dihydroxy-cis-hex-3-en-2-one] the “inhibition of LPS-induced IL-10 production” value (interleukin-10 (IL-10)) was “inhibition of LPS-induced IL-10 production was found” and the “inhibition of LPS-stimulated TNFα production” value (TNFα) was “inhibition”.
